For seven molecules, DNA and IC50 results are on record in ChEMBL document CHEMBL1122822 (1985).

For experiment [1], the system named is MCF7. In words: Effect on the growth of MCF-7 cells at a concentration of,10 e-7 M, percentage of control value being 80. The class given is functional, Homo sapiens.
For experiment [2], the system named is MCF7. In words: Effect of compound with 10e-8 M estradiol on the growth of MCF-7 cells at a concentration 10 e-7 M, percentage of control value being 13. The class given is functional, Homo sapiens.
Experiment [3] deals with MCF7. In words: Effect of compound with 10e-8 M estradiol on the growth of MCF-7 cells at a concentration of,10 e-6 M, percentage of control value being 74. The experiment is classed as functional, Homo sapiens.
The subject of experiment [4] is MCF7. In words: Effect on the growth of MCF-7 cells at a concentration of,10 e-7 M, percentage of control value being 87. The class given is functional, Homo sapiens.
For experiment [5], the system named is MCF7. In words: Effect of compound on the growth of MCF-7 cells at a concentration of,10 e-6 M, percentage of control value being 85. The experiment is classed as functional, Homo sapiens.
Experiment [6] concerns MCF7. In words: Effect of compound with 10e-8 M estradiol on the growth of MCF-7 cells at a concentration 10 e-7 M, percentage of control value being 77. The class given is functional, Homo sapiens.
For experiment [7], the system named is MCF7. In words: Effect of compound with 10e-8 M estradiol on the growth of MCF-7 cells at a concentration of 10 e-6 M, percentage of control value being 68. The experiment is classed as functional, Homo sapiens.
Experiment [8] deals with MCF7. In words: Effect on the growth of MCF-7 cells at a concentration of 10 e-7 M, percentage of control value being 67. The class given is functional, Homo sapiens.
Experiment [9] deals with MCF7. In words: Effect of compound on the growth of MCF-7 cells at a concentration of 10 e-6 M, percentage of control value being 35. The experiment is classed as functional, Homo sapiens.
Experiment [10] concerns MCF7. In words: Effect of compound with 10e-8 M estradiol on the growth of MCF-7 cells at a concentration 10 e-7 M, percentage of control value being 90. The class given is functional, Homo sapiens.
For experiment [11], the system named is MCF7. In words: Effect of compound with 10e-8 M estradiol on the growth of MCF-7 cells at a concentration of 10 e-6 M, percentage of control value being 32. The class given is functional, Homo sapiens.
The subject of experiment [12] is MCF7. In words: Effect on the growth of MCF-7 cells at a concentration of 10 e-7 M, percentage of control value being 36. The class given is functional, Homo sapiens.
Experiment [13] concerns MCF7. In words: Effect of compound on the growth of MCF-7 cells at a concentration of 10 e-6 M Experiment 2, percentage of control value being 13. The class given is functional, Homo sapiens.
Experiment [14] concerns MCF7. In words: Effect of compound on the growth of MCF-7 cells at a concentration of 10 e-6 M, percentage of control value being 23. The experiment is classed as functional, Homo sapiens.
The subject of experiment [15] is MCF7. In words: Effect of compound on the growth of MCF-7 cells at a concentration of 10 e-7 M Experiment 2, percentage of control value being 15. The class given is functional, Homo sapiens.
Experiment [16] concerns MCF7. In words: Effect of compound with 10e-8 M estradiol on the growth of MCF-7 cells at a concentration 10 e-7 M, percentage of control value being 85. The class given is functional, Homo sapiens.
In experiment [17] the test system is MCF7. In words: Effect of compound with 10e-8 M estradiol on the growth of MCF-7 cells at a concentration 10 e-7 M, percentage of control value being 91. The class given is functional, Homo sapiens.
The test system of experiment [18] is MCF7. In words: Effect of compound with 10e-8 M estradiol on the growth of MCF-7 cells at a concentration of,10 e-6 M, percentage of control value being 90. The class given is functional, Homo sapiens.
The test system of experiment [19] is MCF7. In words: Effect on the growth of MCF-7 cells at a concentration of,10 e-7 M, percentage of control value being 84. The class given is functional, Homo sapiens.
Experiment [20] has as its system MCF7. In words: Effect of compound on the growth of MCF-7 cells at a concentration of,10 e-6 M, percentage of control value being 63. The class given is functional, Homo sapiens.
Experiment [21] concerns the target Estrogen receptor (Rattus norvegicus) (UniProt P06211+Q62986).
Description: In vitro relative binding affinity for rat uterine estrogen receptor compared to [3H]estradiol
For experiment [22], the system named is MCF7. In words: Effect on the growth of MCF-7 cells at a concentration of,10 e-7 M, percentage of control value being 20. The class given is functional, Homo sapiens.
Experiment [23] relates to MCF7. In words: Effect of compound with 10e-8 M estradiol on the growth of MCF-7 cells at a concentration 10 e-7 M, percentage of control value being 12. The class given is functional, Homo sapiens.

For `CC/C(=C(/c1ccc(OCCN(C)C)cc1)c1ccc(O)cc1O)c1ccccc1`, the DNA came to 6.6 µg in experiment [1] and 1.1 µg in [2].

`CC/C(=C(/c1ccc(OCCN(C)C)cc1)c1ccccc1O)c1ccccc1`: the DNA in [3] was 12.4 µg; in experiment [4], 14.6 µg; in experiment [5] it was 14.2 µg; in experiment [6] it was 12.8 µg.

As to `CC/C(=C(/c1ccc(OCCN(C)C)cc1)c1cccc(O)c1)c1ccccc1` [DROLOXIFENE], the DNA in experiment [7] came out at 11.3 µg; in experiment [8], 11.2 µg; in [9], 5.9 µg; in experiment [10], 15 µg.

For `CCC(=C(c1ccc(O)cc1)c1ccc(OCCN(C)C)cc1)c1ccccc1`, the DNA was found to be 5.4 µg in experiment [11]; 6 µg in [12]; 1.1 µg in experiment [13]; 3.8 µg in experiment [14]; 1.2 µg in [15]; 14.2 µg in experiment [16].

In the case of `CC/C(=C(\c1ccccc1)c1ccc(OCCN(C)C)cc1)c1ccccc1` [TAMOXIFEN], the DNA worked out at 15.2 µg in [17], 15.1 µg in [18], 14 µg in [19] and 10.6 µg in experiment [20].

With `CC/C(=C(\c1ccccc1)c1ccc(OCCN(C)C)cc1)c1cccc(O)c1`, the midpoint of inhibition in experiment [21], the IC50, lay at 30 nM.

Turning to `CC/C(=C(/c1ccc(OCCN(C)C)cc1)c1ccc(O)cc1C)c1ccccc1`, the DNA in experiment [22] was 1.6 µg; in experiment [23], 1 µg.
